Patent publication US20060009493A1, “Indolinone hydrazides as c-Met inhibitors” (Sugen, Inc., priority 2003, published 2006)

These molecules were tested against T1, GST fusion protein containing the Met kinase domain (Homo sapiens, UniProt P08581) (assay: MET Transphosphorylation Assay (ELISA, poly(Glu,Tyr) 4:1 substrate)). Conditions: met transphosphorylation of poly(glutamic acid:tyrosine 4:1) substrate; two values in a cell separated by '/'.
T1 construct: Purified GST fusion protein containing the Met kinase domain, Sugen, Inc
Type: biochemical
Procedure: MET Transphosphorylation Assay
This assay is used to measure phosphotyrosine levels on a poly(glutamic acid:tyrosine (4:1)) substrate as a means for identifying agonists/antagonists of met transphosphorylation of the substrate.
• 1. […] PBS, Gibco Catalog # 450-1300EB • 4. 50 mM HEPES • 5. […] Purified GST fusion protein containing the Met kinase domain, Sugen, Inc. • 7. TBST Buffer. • 8. 10% aqueous (MilliQue H2O) DMSO. • 9. […] 2× Kinase Dilution Buffer: for 100 ml, mix 10 mL 1M HEPES at pH 7.5 with 0.4 mL 5% BSA/PBS, 0.2 mL 0.1 M sodium orthovanadate and 1 mL 5M sodium chloride in 88.4 mL dH2O. • 11. 4×ATP Reaction Mixture: for 10 mL, mix 0.4 mL 1 M manganese chloride and 0.02 mL 0.1 M ATP in […] dH2O. • 12. 4× Negative Controls Mixture: for 10 mL, mix 0.4 mL 1 M manganese chloride in 9.6 mL dH2O.
13. […] 500 mM EDTA. • 15. Antibody Dilution Buffer: for 100 mL, mix 10 mL 5% BSA/PBS, 0.5 mL 5% Carnation Instant Milk® in PBS and 0.1 mL 0.1 M sodium orthovanadate in 88.4 mL TBST. • 16. Rabbit polyclonal antophosphotyrosine antibody, Sugen, Inc. • 17. Goat anti-rabbit horseradish peroxidase conjugated antibody, Biosource, Inc. • 18. ABTS Solution: for 1 L, mix 19.21 g citric acid, 35.49 g Na2HPO4 and 500 mg ABTS with sufficient dH2O to make 1 L. • 19. ABTS/H2O2: mix 15 mL ABST solution with 2 μL H2O2 five minutes before use. • 20. 0.2 M HCl Procedure: • 1. Coat ELISA plates with 2 μg Poly(Glu-Tyr) in 100 μL PBS, store overnight at 4° C. • 2. Block plate with 150 μL of 5% BSA/PBS for 60 min. • 3. Wash plate twice with PBS, once with 50 mM Hepes buffer pH 7.4. • 4. Add 50 μl of the diluted kinase to all wells. (Purified kinase is diluted with Kinase Dilution Buffer. Final concentration should be 10 ng/well.) • 5. Add 25 μL of the test compound (in 4% DMSO) or DMSO alone (4% in dH2O) for controls to plate. • 6. Incubate the kinase/compound mixture for 15 minutes. • 7. Add 25 μL of 40 mM MnCl2 to the negative control wells. • 8. Add 25 μL ATP/MnCl2 mixture to the all other wells (except the negative controls). Incubate for 5 min. • 9. Add 25 μL 500 mM EDTA to stop reaction. • 10. Wash plate 3× with TBST. • 11. Add 100 μL rabbit polyclonal anti-Ptyr diluted 1:10,000 in Antibody Dilution Buffer to each well. Incubate, with shaking, at room temperature for one hour. • 12. Wash plate 3× with TBST. • 13. […] Add 100 μL per well and incubate at room temperature, with shaking, for one hour. • 14. Wash plate 1× with PBS. • 15. Add 100 μl of ABTS/H2O2 solution to each well. • 16. If necessary, stop the development reaction with the addition of […] of 0.2M HCl per well. • 17.

T1 sequence (P08581 1078-1345 limits assumed): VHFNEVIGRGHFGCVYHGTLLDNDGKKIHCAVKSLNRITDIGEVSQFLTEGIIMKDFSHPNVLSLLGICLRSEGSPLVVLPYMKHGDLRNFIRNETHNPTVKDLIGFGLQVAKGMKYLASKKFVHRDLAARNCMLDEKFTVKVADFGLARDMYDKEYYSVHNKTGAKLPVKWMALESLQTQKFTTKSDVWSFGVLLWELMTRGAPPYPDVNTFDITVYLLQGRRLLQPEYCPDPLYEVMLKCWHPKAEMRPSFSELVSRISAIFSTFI

Row | SMILES | IC50 [nM]
1 | O=C(Cc1ccc(O)cc1)N/N=C1\C(=O)Nc2c(C(=O)O)cccc21 [Example I-47, (3Z)-3-{[2-(4-Hydroxy-phenyl)-acetyl]-hydrazono}-2-oxo-2,3-dihydro-1H-indole-7-carboxylic acid] | 14600
2 | CN1CCN(S(=O)(=O)c2ccc3c(c2)/C(=N/NC(=O)Cc2ccc(O)cc2)C(=O)N3)CC1 [Example I-25, (4-Hydroxy-phenyl)-acetic acid [(3Z)-5-(4-methyl-piperazine-1-sulfonyl)-2-oxo-1,2-dihydro-indol-3-ylidene]-hydrazide] | 77
3 | Cc1ccc(C)c2c1NC(=O)/C2=N\NC(=O)C1Cc2ccccc2C1 [Example I-58, Indan-2-carboxylic acid [(3Z)-4,7-dimethyl-2-oxo-1,2-dihydro-indol-3-ylidene]-hydrazide] | > 20000
4 | CC(C(=O)N/N=C1\C(=O)Nc2ccc(C(=O)N3CCC(NC4CC4)CC3)c(Cl)c21)c1ccc(O)cc1 (stereo not drawn) [Example I-33, 2-(4-Hydroxy-phenyl)-propionic acid [(3Z)-4-chloro-5-(4-cyclopropylamino-piperidine-1-carbonyl)-2-oxo-1,2-dihydro-indol-3-ylidene]-hydrazide] | 86
5 | O=C(Cc1ccc(O)nc1)N/N=C1\C(=O)Nc2ccc(C(=O)N3CCC(NC4CC4)CC3)c(Cl)c21 [Example I-44, (6-Hydroxy-pyridin-3-yl)-acetic acid [(3Z)-4-chloro-5-(4-cyclopropylamino-piperidine-1-carbonyl)-2-oxo-1,2-dihydro-indol-3-ylidene]-hydrazide] | 570
6 | COC(=O)c1cccc2c1/C(=N/NC(=O)Cc1ccc(O)cc1)C(=O)N2 [Example I-56, (3Z)-3-{[2-(4-Hydroxy-phenyl)-acetyl]-hydrazono}-2-oxo-2,3-dihydro-1H-indole-4-carboxylic acid methyl ester] | 540
7 | O=C(Cc1ccc(O)cc1)N/N=C1\C(=O)Nc2ncccc21 [Example I-49, (4-Hydroxy-phenyl)-acetic acid [(3Z)-2-oxo-1,2-dihydro-pyrrolo[2,3-b]pyridin-3-ylidene)-hydrazide] | 230
8 | O=C(Cc1ccc2c(c1)OCO2)N/N=C1\C(=O)Nc2ccc(S(=O)(=O)NCCN3CCOCC3)cc21 [Example I-31, (3Z)-3-[(2-Benzo[1,3]dioxol-5-yl-acetyl)-hydrazono]-2-oxo-2,3-dihydro-1H-indole-5-sulfonic acid (2-morpholin-4-yl-ethyl)-amide] | 320
9 | O=C(Cc1ccc(O)c(Cl)c1)N/N=C1\C(=O)Nc2ccc(C(=O)O)c(Cl)c21 [Example I-37, (3Z)-4-Chloro-3-{[2-(3-chloro-4-hydroxy-phenyl)-acetyl]-hydrazono}-2-oxo-2,3-dihydro-1H-indole-5-carboxylic acid] | 29
10 | O=C1Nc2c(Cl)ccc(Cl)c2/C1=N/NC(=O)C1Cc2ccccc2C1 [Example I-57] | > 20000
11 | CN1CCN(C(=O)c2ccc3c(c2)/C(=N/NC(=O)Cc2ccc(O)cc2)C(=O)N3)CC1 [Example I-12, (4-Hydroxy-phenyl)-acetic acid [(3Z)-5-(4-methyl-piperazine-1-carbonyl)-2-oxo-1,2-dihydro-indol-3-ylidene]-hydrazide] | 78
12 | CC(=O)Nc1ccc(CC(=O)N/N=C2\C(=O)Nc3ccccc32)cc1 [Example I-4, N-[4-[(3Z)-2-Oxo-1,2-dihydro-indol-3-ylidene-hydrazinocarbonylmethyl]-phenyl]-acetamide] | > 20000
13 | CC(C(=O)N/N=C1\C(=O)Nc2c(Cl)ccc(Cl)c21)c1ccc2c(c1)OCO2 (stereo not drawn) [Example I-52, 2-Benzo[1,3]dioxol-5-yl-propionic acid [(3Z)-4,7-dichloro-2-oxo-1,2-dihydro-indol-3-ylidene]-hydrazide] | 260

Further lines, results first:

Row | IC50 [nM] | SMILES
14 | 15 | Cc1ccc(C)c2c1NC(=O)/C2=N\NC(=O)Cc1ccc(O)cc1 [II-31, (4-Hydroxy-phenyl)-acetic acid [(3Z)-4,7-dimethyl-2-oxo-1,2-dihydro-indol-3-ylidene]-hydrazide]
15 | 7200 | COc1cccc(CC(=O)N/N=C2\C(=O)Nc3ccccc32)c1 [II-12, (3-Methoxy-phenyl)-acetic acid [(3Z)-2-oxo-1,2-dihydro-indol-3-ylidene]-hydrazide]
16 | 240 | COc1cc(CC(=O)N/N=C2\C(=O)Nc3ccccc32)ccc1O [II-40, (4-Hydroxy-3-methoxy-phenyl)-acetic acid [(3Z)-2-oxo-1,2-dihydro-indol-3-ylidene]-hydrazide]
17 | > 20000 | O=C(Cc1ccccc1Cl)N/N=C1\C(=O)Nc2ccccc21 [II-13, (2-Chloro-phenyl)-acetic acid [(3Z)-2-oxo-1,2-dihydro-indol-3-ylidene]-hydrazide]
18 | 67 | Cc1ccc2c(c1)/C(=N/NC(=O)Cc1ccc(O)cc1)C(=O)N2 [II-58, (4-Hydroxy-phenyl)-acetic acid [(3Z)-5-methyl-2-oxo-1,2-dihydro-indol-3-ylidene]-hydrazide]
19 | > 20000 | COc1ccc(CC(=O)N/N=C2\C(=O)Nc3ccc(C(=O)O)c(Cl)c32)cc1C#N [II-110, (3Z)-4-Chloro-3-{[2-(3-cyano-4-methoxy-phenyl)-acetyl]-hydrazono}-2-oxo-2,3-dihydro-1H-indole-5-carboxylic acid]
20 | 22 | Cc1cccc2c1/C(=N/NC(=O)Cc1ccc(O)cc1)C(=O)N2 [II-47, (4-Hydroxy-phenyl)-acetic acid [(3Z)-4-methyl-2-oxo-1,2-dihydro-indol-3-ylidene]-hydrazide]
21 | > 20000 | Cc1cn(CC(=O)N/N=C2\C(=O)Nc3c(Cl)ccc(Cl)c32)c(=O)[nH]c1=O [II-74, (5-Methyl-2,4-dioxo-3,4-dihydro-2H-pyrimidin-1-yl)-acetic acid [(3Z)-4,7-dichloro-2-oxo-1,2-dihydro-indol-3-ylidene]-hydrazide]
22 | 230 | COc1ccc(C(C)C(=O)N/N=C2\C(=O)Nc3ccccc32)cc1 (stereo not drawn) [II-17]
23 | < 9 | O=C(Cc1ccc(O)c(Cl)c1)N/N=C1\C(=O)Nc2c(Cl)ccc(Cl)c21 [II-54, (3-Chloro-4-hydroxy-phenyl)-acetic acid [(3Z)-4,7-dichloro-2-oxo-1,2-dihydro-indol-3-ylidene)-hydrazide]
24 | 110 | COc1ccc(CC(=O)N/N=C2\C(=O)Nc3c(C)ccc(C)c32)cn1 [II-45, (6-Methoxy-pyridin-3-yl)-acetic acid [(3Z)-4,7-dimethyl-2-oxo-1,2-dihydro-indol-3-ylidene]-hydrazide]
25 | 81 | O=C(CCc1ccc(O)cc1)N/N=C1\C(=O)Nc2cccc(Cl)c21 [II-83, 3-(4-Hydroxy-phenyl)-propionic acid [(3Z)-4-chloro-2-oxo-1,2-dihydro-indol-3-ylidene]-hydrazide]
26 | < 9 | O=C(Cc1ccc(O)c(F)c1)N/N=C1\C(=O)Nc2c(Cl)ccc(Cl)c21 [II-55, (3-Fluoro-4-hydroxy-phenyl)-acetic acid [(3Z)-4,7-dichloro-2-oxo-1,2-dihydro-indol-3-ylidene]-hydrazide]
27 | > 20000 | Nc1ccc(CC(=O)N/N=C2\C(=O)Nc3ccccc32)cc1 [II-22]
28 | > 20000 | CC(C)Oc1ccc(CC(=O)N/N=C2\C(=O)Nc3ccccc32)cc1 [II-9, (4-Isopropoxy-phenyl)-acetic acid [(3Z)-2-oxo-1,2-dihydro-indol-3-ylidene]-hydrazide]
29 | 6350 | O=C(CCc1ccc(O)cc1)N/N=C1\C(=O)Nc2ccccc21 [II-25, 3-(4-Hydroxy-phenyl)-propionic acid [(3Z)-2-oxo-1,2-dihydro-indol-3-ylidene]-hydrazide]
30 | 520 | O=C(Cc1ccc(O)cc1)N/N=C1\C(=O)Nc2ccccc21 [II-23, (4-Hydroxy-phenyl)-acetic acid [(3E)-2-oxo-1,2-dihydro-indol-3-ylidene]-hydrazide]
